Consider 49 compounds from patent US8822451B2, “Modulators of ATP-binding cassette transporters” (Vertex Pharmaceuticals Incorporated, priority 2005, dated 2014).

The assay deals with T1, […]F508-CFTR (Homo sapiens, UniProt P13569, DEL508-508).
T1 construct: expressed in transfected cells
Description: Assay results of Table 3: ΔF508-CFTR modulation, membrane potential optical assay (assay format not stated). It counts as cell-based. The settings on record: NIH3T3 mouse fibroblasts stably expressing […]F508-CFTR (optical assays); for Efficacy: efficacy range; for EC50: potency range. The method, boiled down: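 NIH3T3 mouse fibroblasts stably expressing ΔF508-CFTR; FRET membrane-potential dyes (CC2-DMPE/DiSBAC2(3)) read on VIPR II. Correctors: 16 h at 37° C. with compound, then 10 μM forskolin + 20 μM genistein in Cl⁻-free medium. Potentiators: cells at 27° C. 24 h, compound then 2-10 μM forskolin; EC50 and efficacy derived.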

T1 sequence (P13569 with tags, fused parts or gaps DEL508-508): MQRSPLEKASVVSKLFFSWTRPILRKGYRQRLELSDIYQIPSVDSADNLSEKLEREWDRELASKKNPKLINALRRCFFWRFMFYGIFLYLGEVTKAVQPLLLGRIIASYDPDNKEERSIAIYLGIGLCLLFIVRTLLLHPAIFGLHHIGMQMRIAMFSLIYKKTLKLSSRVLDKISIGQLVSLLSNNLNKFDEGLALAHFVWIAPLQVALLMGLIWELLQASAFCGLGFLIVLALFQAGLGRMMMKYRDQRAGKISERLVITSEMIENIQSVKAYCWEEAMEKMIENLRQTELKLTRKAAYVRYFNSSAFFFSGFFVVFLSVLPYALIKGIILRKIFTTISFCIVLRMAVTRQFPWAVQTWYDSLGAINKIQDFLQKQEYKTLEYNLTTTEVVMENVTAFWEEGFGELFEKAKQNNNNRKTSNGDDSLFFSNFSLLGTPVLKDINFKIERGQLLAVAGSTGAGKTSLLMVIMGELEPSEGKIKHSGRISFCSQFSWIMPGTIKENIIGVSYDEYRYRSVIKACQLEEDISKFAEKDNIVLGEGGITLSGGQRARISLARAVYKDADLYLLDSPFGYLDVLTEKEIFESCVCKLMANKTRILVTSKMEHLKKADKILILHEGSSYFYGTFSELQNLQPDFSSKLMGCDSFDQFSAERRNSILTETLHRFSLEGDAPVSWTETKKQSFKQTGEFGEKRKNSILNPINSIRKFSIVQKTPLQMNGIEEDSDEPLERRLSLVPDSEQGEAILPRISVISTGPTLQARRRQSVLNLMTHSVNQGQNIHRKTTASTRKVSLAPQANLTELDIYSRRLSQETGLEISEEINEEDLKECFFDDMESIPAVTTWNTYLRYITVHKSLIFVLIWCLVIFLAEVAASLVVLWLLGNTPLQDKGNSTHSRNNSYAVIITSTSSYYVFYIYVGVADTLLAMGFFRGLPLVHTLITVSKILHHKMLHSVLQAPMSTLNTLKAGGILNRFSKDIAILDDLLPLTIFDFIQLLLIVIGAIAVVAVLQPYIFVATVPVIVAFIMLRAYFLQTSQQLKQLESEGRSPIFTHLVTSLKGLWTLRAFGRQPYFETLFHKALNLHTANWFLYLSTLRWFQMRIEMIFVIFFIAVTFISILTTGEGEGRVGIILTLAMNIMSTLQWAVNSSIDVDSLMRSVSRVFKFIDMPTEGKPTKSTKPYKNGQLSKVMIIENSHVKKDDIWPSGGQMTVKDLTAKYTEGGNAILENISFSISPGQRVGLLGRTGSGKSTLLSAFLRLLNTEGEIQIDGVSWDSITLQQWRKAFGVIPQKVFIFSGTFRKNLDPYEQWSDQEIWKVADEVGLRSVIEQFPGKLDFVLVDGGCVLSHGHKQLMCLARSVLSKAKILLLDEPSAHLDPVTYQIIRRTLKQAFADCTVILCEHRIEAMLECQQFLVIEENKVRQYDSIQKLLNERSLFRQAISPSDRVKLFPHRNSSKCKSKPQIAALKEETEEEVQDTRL

For the compound `CCN(CC)c1nc(C(N)=O)cc(-c2ccc(OC)c(OC)c2)n1` [Compound 82], the Efficacy result was “++ (++ corresponds to Efficacy between 100 and 50)”; the EC50 (in general, the midpoint of the concentration-response curve) is less than 1 µM.
For the compound `NC(=O)c1cc(-c2ccccc2)nc(N2CC=C(c3ccccc3)CC2)n1` [Compound 53], the Efficacy entry was “++ (++ corresponds to Efficacy between 100 and 50)”; the EC50 was more than 5 µM.
As for `NC(=O)c1cc(-c2cc(F)cc(F)c2)nc(N2CCCCC2)n1` [Compound 219], the Efficacy entry is on record as “+ (+ corresponds to Efficacy less than 50)” and the EC50 lay in the range of 1 to 5 µM.
As to `CCN(CC)C(=O)c1cc(-c2ccccc2)nc(N(CC)CC)n1` [Compound 141], the Efficacy entry is “++ (++ corresponds to Efficacy between 100 and 50)”; the EC50 fell in the range of 1 to 5 µM.
Regarding `NC(=O)c1cc(-c2ccccc2)nc(N2CCCCCCC2)n1` [Compound 86], the Efficacy result is “++ (++ corresponds to Efficacy between 100 and 50)”; the EC50 was less than 1 µM.
As for `NC(=O)c1cc(-c2ccccc2)nc(N2CCC(O)(c3cccc(C(F)(F)F)c3)CC2)n1` [Compound 96], the Efficacy result was “++ (++ corresponds to Efficacy between 100 and 50)”; the EC50 is more than 5 µM.
For `CCCCN(CCC)c1nc(C(N)=O)cc(-c2ccccc2)n1` [Compound 118], the Efficacy result is “++ (++ corresponds to Efficacy between 100 and 50)”; the EC50 was less than 1 µM.
In the case of `CN(C)C(=O)c1cc(-c2ccccc2)nc(N2CCCCC2)n1` [Compound 222], the Efficacy result was “++ (++ corresponds to Efficacy between 100 and 50)”; the EC50 is more than 5 µM.
Take `NC(=O)c1cc(-c2ccccc2)nc(N2CCC(O)(c3ccc(Cl)cc3)CC2)n1` [Compound 42]: the Efficacy entry is given as “+ (+ corresponds to Efficacy less than 50)” and the EC50 is more than 5 µM.
As to `N#Cc1ccc(-c2cc(C(N)=O)nc(N3CCCCC3)n2)cc1` [Compound 130], the Efficacy entry is “+ (+ corresponds to Efficacy less than 50)” and the EC50 is more than 5 µM.
On to `CC(C)CCN(C)c1nc(C(N)=O)cc(-c2ccccc2)n1` [Compound 206], for which the Efficacy result was “++ (++ corresponds to Efficacy between 100 and 50)”; the EC50 was 1 to 5 µM.
For the compound `CCOc1ccccc1-c1cc(C(N)=O)nc(N(CC)CC)n1` [Compound 5], the Efficacy entry is listed as “+++ (+++ corresponds to Efficacy greater than 100)” and the EC50 is less than 1 µM.
Consider `NC(=O)c1cc(-c2ccccc2)nc(NCc2ccccc2)n1` [Compound 126], for which the Efficacy result is “++ (++ corresponds to Efficacy between 100 and 50)”; the EC50 was more than 5 µM.
On to `NC(=O)c1cc(-c2ccccc2C(F)(F)F)nc(N2CCCCC2)n1` [Compound 72], for which the Efficacy entry was “++ (++ corresponds to Efficacy between 100 and 50)”; the EC50 is 1 to 5 µM.
On to `COc1ccc(-c2cc(C(N)=O)nc(N3CCCCC3)n2)cc1` [Compound 142], for which the Efficacy result is “++ (++ corresponds to Efficacy between 100 and 50)”; the EC50 is more than 5 µM.
For the compound `CCN(CC)c1nc(C(N)=O)cc(-c2cccc(C(=O)OC(C)C)c2)n1` [Compound 85], the Efficacy result was “++ (++ corresponds to Efficacy between 100 and 50)”; the EC50 is less than 1 µM.
As to `NC(=O)c1cc(-c2ccccc2)nc(N2CCC3(CC2)OCCO3)n1` [Compound 44], the Efficacy result is “++ (++ corresponds to Efficacy between 100 and 50)”; the EC50 was more than 5 µM.
In the case of `C=CCN(CC=C)c1nc(C(N)=O)cc(-c2ccccc2)n1` [Compound 69], the Efficacy entry is “+++ (+++ corresponds to Efficacy greater than 100)” and the 50% effective concentration (EC50) fell in the range of 1 to 5 µM.
For the compound `CCN(CC)c1nc(C(N)=O)cc(-c2ccc(C)cc2)n1` [Compound 230], the Efficacy result is on record as “+++ (+++ corresponds to Efficacy greater than 100)” and the EC50 lay within 1 to 5 µM.
On to `CC(=O)C1(c2ccccc2)CCN(c2nc(C(N)=O)cc(-c3ccccc3)n2)CC1` [Compound 45], for which the Efficacy result is “++ (++ corresponds to Efficacy between 100 and 50)”; the EC50 is 1 to 5 µM.
As to `CCN(CC)c1nc(C(N)=O)cc(-c2ccc(C(F)(F)F)cc2)n1` [Compound 10], the Efficacy result is “++ (++ corresponds to Efficacy between 100 and 50)”; the EC50 is more than 5 µM.
For `NC(=O)c1cc(-c2ccccc2)nc(N2CC=C(c3ccc(Cl)cc3)CC2)n1` [Compound 3], the Efficacy result is “++ (++ corresponds to Efficacy between 100 and 50)”; the EC50 is more than 5 µM.
Consider `CCN(CC)c1nc(C(N)=O)cc(-c2ccc(C(=O)OC)cc2)n1` [Compound 223], for which the Efficacy entry is on record as “+++ (+++ corresponds to Efficacy greater than 100)” and the EC50 fell in the range of 1 to 5 µM.
`CCN(CCO)c1nc(C(N)=O)cc(-c2ccccc2OC)n1` [Compound 228]: the Efficacy result is “++ (++ corresponds to Efficacy between 100 and 50)”; the EC50 was more than 5 µM.
With `COc1ccc(-c2cc(C(N)=O)nc(NCc3ccco3)n2)cc1` [Compound 176], the Efficacy result is “++ (++ corresponds to Efficacy between 100 and 50)”; the EC50 is more than 5 µM.
`CCNc1nc(C(N)=O)cc(-c2ccccc2)n1` [Compound 215]: the Efficacy result is “++ (++ corresponds to Efficacy between 100 and 50)”; the EC50 is more than 5 µM.
Turning to `CCN(CC)c1nc(C(N)=O)cc(-c2ccccc2OC)n1` [Compound 110], the Efficacy result was “+++ (+++ corresponds to Efficacy greater than 100)” and the EC50 was less than 1 µM.
On to `CCN(CC)c1nc(C(N)=O)cc(-c2cccc(OC)c2)n1` [Compound 74], for which the Efficacy result was “+++ (+++ corresponds to Efficacy greater than 100)” and the EC50 lay in the range of 1 to 5 µM.
On to `CCN(CC)c1nc(C(N)=O)cc(-c2ccc(CC(C)C)cc2)n1` [Compound 184], for which the Efficacy entry is “++ (++ corresponds to Efficacy between 100 and 50)”; the EC50 was less than 1 µM.
For the compound `COc1cccc(-c2cc(C(N)=O)nc(NCc3ccco3)n2)c1` [Compound 173], the Efficacy entry was “++ (++ corresponds to Efficacy between 100 and 50)”; the EC50 is more than 5 µM.
`NC(=O)c1cc(-c2ccccc2)nc(N2CC=CCC2)n1` [Compound 46]: the Efficacy entry is reported as “+++ (+++ corresponds to Efficacy greater than 100)” and the EC50 lay in the range of 1 to 5 µM.
For the compound `Cc1ccc(-c2cc(C(N)=O)nc(N3CCCCC3)n2)cc1` [Compound 221], the Efficacy result is on record as “+ (+ corresponds to Efficacy less than 50)” and the EC50 is 1 to 5 µM.
For the compound `NC(=O)c1cc(-c2ccccc2)nc(N2CCSC2)n1` [Compound 169], the Efficacy entry is given as “+++ (+++ corresponds to Efficacy greater than 100)” and the EC50 is more than 5 µM.
`COc1ccc(Cl)cc1-c1cc(C(N)=O)nc(N2CCCCC2)n1` [Compound 115]: the Efficacy result was “++ (++ corresponds to Efficacy between 100 and 50)”; the EC50 lay within 1 to 5 µM.
With `CCOc1ccc(-c2cc(C(N)=O)nc(N(CC)CC)n2)cc1` [Compound 20], the Efficacy entry was “++ (++ corresponds to Efficacy between 100 and 50)”; the EC50 is less than 1 µM.
For the compound `CCNc1nc(C(N)=O)cc(-c2ccc(OC)cc2)n1` [Compound 102], the Efficacy entry was “++ (++ corresponds to Efficacy between 100 and 50)”; the EC50 is more than 5 µM.
For the compound `N#CC1(c2ccccc2)CCN(c2nc(C(N)=O)cc(-c3ccccc3)n2)CC1` [Compound 180], the Efficacy result was “++ (++ corresponds to Efficacy between 100 and 50)”; the EC50 was more than 5 µM.
In the case of `COc1ccc(-c2cc(C(N)=O)nc(N3CCCCC3)n2)cc1OC` [Compound 124], the Efficacy entry was “+++ (+++ corresponds to Efficacy greater than 100)” and the EC50 fell in the range of 1 to 5 µM.
Turning to `NC(=O)c1cc(-c2ccccc2)nc(N2CCC(C(=O)c3ccc(F)cc3)CC2)n1` [Compound 60], the Efficacy result is “++ (++ corresponds to Efficacy between 100 and 50)”; the EC50 is more than 5 µM.
Consider `C=CCN(C)c1nc(C(N)=O)cc(-c2ccccc2)n1` [Compound 14], for which the Efficacy result was “+++ (+++ corresponds to Efficacy greater than 100)” and the EC50 lay in the range of 1 to 5 µM.
With `COc1ccc(-c2cc(C(N)=O)nc(NCC3CC3)n2)cc1` [Compound 189], the Efficacy result is “+ (+ corresponds to Efficacy less than 50)” and the EC50 was more than 5 µM.
On to `N#Cc1cccc(-c2cc(C(N)=O)nc(N3CCCCC3)n2)c1` [Compound 111], for which the Efficacy result is “++ (++ corresponds to Efficacy between 100 and 50)”; the EC50 was more than 5 µM.
With `CCN(CC)c1nc(C(N)=O)cc(-c2cccc(C)c2C)n1` [Compound 120], the Efficacy entry was “++ (++ corresponds to Efficacy between 100 and 50)”; the EC50 was less than 1 µM.
In the case of `CCOC(=O)CN(C)c1nc(C(N)=O)cc(-c2ccccc2)n1` [Compound 209], the Efficacy entry is “++ (++ corresponds to Efficacy between 100 and 50)”; the EC50 was in the range of 1 to 5 µM.
In the case of `NC(=O)c1cc(-c2ccccc2)nc(N2CCCCC2)n1` [Compound 16], the Efficacy entry is “++ (++ corresponds to Efficacy between 100 and 50)”; the EC50 is 1 to 5 µM.
For `CNC(=O)c1cc(-c2ccccc2)nc(NCC2CC2)n1` [Compound 41], the Efficacy entry was “+ (+ corresponds to Efficacy less than 50)” and the EC50 was more than 5 µM.
Consider `COc1cccc(-c2cc(C(N)=O)nc(N3CC=CCC3)n2)c1` [Compound 15], for which the Efficacy entry is “++ (++ corresponds to Efficacy between 100 and 50)”; the EC50 is more than 5 µM.
Consider `COc1cc2c(cc1OC)CN(c1nc(C(N)=O)cc(-c3ccccc3)n1)CC2` [Compound 49], for which the Efficacy result was “++ (++ corresponds to Efficacy between 100 and 50)”; the EC50 is more than 5 µM.
In the case of `Cc1ccccc1-c1cc(C(N)=O)nc(N2CCCCC2)n1` [Compound 114], the Efficacy entry is “+++ (+++ corresponds to Efficacy greater than 100)” and the EC50 fell in the range of 1 to 5 µM.
